Patent US7390782B2, “Methods and products related to metabolic interactions in disease” (University of Vermont and State Agricultural College, priority 1998, dated 2008)
Entries after “also recorded” stand apart in the source; their conditions may differ.

Legend:
L1210/DDP [1] = experiment: Fas expression by flow cytometry (FITC anti-Fas over isotype); type: cell-based; conditions: for Fas expression: L1210 DDP, in the presence of staurosporine or ADRIAMYCIN
Description: (§1) 3. Fas Expression Increases as a Function of Glucose: We investigated the effect of increasing concentrations of glucoseon cell surface Fas expression. L1210 and L1210/DDP cells were cultured in glucose free RPMI media or in media supplemented with insulin and glucose for 16 hours. Intra- and extracellular Fas expression was determined by labeling the cells with FITC-conjugated anti-Fas antibodies (Pharmingen), or FITC-conjugated isotype control, then subtracting the fluorescence intensity of the isotype staining from Fas staining for each treatment group.
(§2) L1210, upper panels, and L1210/DDP cells, lower panels, were cultured in glucose free RPMI media, filled circles, or in media supplemented with insulin and glucose, squares, for 16 hours. Intra- and extracellular Fas expression was determined by labeling the cells with FITC-conjugated anti-Fas antibodies, or FITC-conjugated isotype control, then subtracting the fluorescence intensity of the isotype staining from Fas staining for each treatment group (FIG. 2). Results are presented as geometric mean fluorescence over background.
(§3) 4. […] We treated L1210 or L1210 DDP cells with the staurosporine, which inhibits protein kinase C and increases mitochondrial membrane potential, or an anti-cancer agent to which both cells are sensitive, ADRIAMYCIN™. Fas expression was increased or induced on both L1210 and L1210 DDP, respectively, in the presence of staurosporine or ADRIAMYCIN™ (FIG. 3). The L1210 DDP changed morphologically and began to divide rapidly, changes which appeared to correspond with a reversion back to the phenotype of the L1210 cells.
(§4) FIG. 23 is a graph depicting Sodium Acetate as a mitochondrial modifying agent. L1210 or L1210DDP cells were cultured in the presence of graded concentrations of sodium acetate in the medium. Cells were stained with Jo2.2, a fluorescein conjugated anti-Fas antibody, or an isotype control. Cell surface staining was measured flow cytometrically. The Percentage of mean fluorescence intensity over the isotype control was plotted.

L1210 [2] = experiment: as above; type: cell-based; conditions: for Fas expression: in the presence of staurosporine or ADRIAMYCIN
Description: as §1, §2, §3, §4

[3] = test system: resting B-cells from (NZB×NZW)F1 and (NZB×SWR)F1 mice; experiment: cAMP in resting B-cells from autoimmune strains; type: cell-based
Description: Following the protocols as described in Newell, M K, et al. (Proc Natl Acad Sci, USA, 1993, 90:10459-10463) for resting B lymphocytes from normal mice, we isolated resting B-cells from spleens of (NZB×NZW)F1 and (NZB×SWR)F1 mice by Percoll gradient separation and treated the cells with antibodies to class II molecules, FIG. 12. Experiments utilized mice younger than 3 months of age. […] Resting (1.079<r<1.085) B-cells from normal; […], animals were treated for 10 min at 37° C. with stimuli indicated. Levels of cAMP were determined as described in FIG. 1. Means (and standard errors) from three experiments are shown for normal animals. The means from two experiments are shown for each of the F1 hybrid animals.

[4] = test system: resting B-cells from (NZB×NZW)F1 and (NZB×SWR)F1 mice; experiment: Apoptosis (DNA fragments) in resting B-cells from autoimmune strains; type: cell-based
Description: We stimulated both resting and activated B-cells from (NZB×NZW)F1 and (NZB×SWR)F1 mice with antibodies to class II molecules. Young animals, prior to the development of lupus-like autoantibody and renal disease, were used in these studies. […] Agarose gel electrophoresis of DNA fragments from high density resting B-cells (1.079<r<1.085) was carried out as described in FIG. 2. Normalized areas produced by scanning densitometry on the gels shown above for normal; (NZB×SWR)F1; or (NZB×NZW)F1, animals. […] For normal animals, the mean and standard error of four experiments are shown. For the (NZB×NZW)F1 animals, representative data from one of two experiments is shown and for (NZB×SWR)F1 animals, a single experiment is shown. Because experiments were performed on different days it is impossible to compare background levels of apoptosis between strains; however, it should be noted that there is significant variability in background levels of apoptosis, with those for the (NZB×NZW)F1 animals apparently tending to be higher than for the other strains.

L1210/DDP [5] = experiment: Methotrexate-induced death, flow cytometry and DNA fragment analysis; type: cell-based; conditions: 10^-8 M methotrexate, 24 hours
Description: (§5) Additionally, L1210 and L1210/DDP cells were treated with 10−8 M methotrexate for 24 hours. […] The forward scatter low populations took up ethidium bromide differentially. The L1210 cells took up a moderate amount. […] This latter phenotype—loss in forward scatter and membrane permeability with no “DNA laddering”—is the hall mark of oncosis.

L1210 [6] = experiment: as above; type: cell-based; conditions: 10^-8 M methotrexate, 24 hours
Description: as §5

[7] = test system: splenic lymphocytes from C57BL/6, C57BL6.lpr and C57BL.gld; experiment: Viability of splenic lymphocytes cultured with methotrexate; type: cell-based, mice; conditions: Fas deficient lymphocytes; 5×10^-8 M methotrexate, 18 or 32 hours
Description: 8. Fas Deficient Lymphocytes are also drug resistant to methotrexate: We isolated splenic lymphocytes from aged-matched wild type C57BL/6 mice and C57BL6.lpr and C57BL.gld. Splenocytes from C57BL/6 lpr or gld animals were isolated, red cells depleted, and single cell suspensions prepared. Cells were cultured in the absence or presence of 5×10^−8 M methotrexate for 18 or 32 hours. Cells were harvested and viability was determined by flow cytometric analysis and confirmed with trypan blue exclusion.

B16 melanoma cells [8] = conditions: increasing concentrations
Description: B16 cells were cultured in the in the presence of different concentrations of sodium acetate and Fas expression was measured.

B16 melanoma cells [9] = conditions: increasing concentrations; remark: listed apart in the source
Description: FIG. 18 depicts the rates of glucose utilization and oxidation in B16 melanoma cells. Again cells were cultured in the presence of varying concentration of sodium acetate.

L1210DDP = conditions: FasL bearing cells over mock-transfectants
Source text: (§6) Cells cultured with acetate were loaded with 51 Cr and plated onto FasL bearing or mock transfected fibroblast to determine sensitivity to Fas-induced cell death. Results are reported as percent chromium release from cells in the presence of FasL bearing cells over mock-transfectants.

L1210 [10] = conditions: FasL bearing cells over mock-transfectants
Source text: as §6

PC12 cells = experiment: Cytofluorometric analysis of Fas, B7.1, B7.2 cell surface expression; type: cell-based, Rat; conditions: 50 ng/ml
Description: (§7) Cell Culture: Rat pheochromocytoma cell lines, including PC12, Trk and v-Crk cells were a kind gift from Dr. Raymond Birge. They were maintained in complete RPMI 1640 (GIBCO) supplemented with 7% heat inactivated fetal calf serum and 3% heat inactivated horse serum at 37° C. in a humidified incubator with 5% CO2. The PC12 transfectants were generated as described previously (Glassman et al., 1997, Hempstead et al., 1994). Cells were plated in 6 well culture plates at a concentration ranging from 2-8×10^6 cells/well, according to the cell type's growth kinetics, and 5 ml complete medium. NGF-7S from mouse submaxillary glands (Sigma Chemical Co.) or EGF, kindly provided by Dr. Raymond Birge, was added at a concentration of 50 ng/ml culture medium and the cells were incubated for 24 or 48 hours.
(§8) Cytofluorometric Analysis: Cells were harvested after a 10 minute incubation period on ice in order to diminish their adherence to the plastic culture flask. They were spun at 1210 rpm, for 7 minutes, resuspended in medium and counted after trypan blue staining. Equal numbers of cells were placed in 12×75 mm flow tubes (range: 0.1-1×10^6 cells/tube), washed in PBS and 5% FBS and stained at 4° C. The following stains were used: a) fluorescein isothiocyanate (FITC) hamster IgG isotype standard, b) FITC anti-mouse Fas, c) FITC anti-mouse CD80 (B7.1), d) phycoerythrin (PE) mouse IgG2b K isotype standard and e) PE anti-mouse CD86 (B7.2). All antibodies were obtained from Pharmingen.
(§9) After incubation on ice for 20 minutes, cells were washed, resuspended in PBS and 5% FCS and analyzed by flow cytometry (Becton Dickinson). Histogram plots were derived from dot plots gated on the live cell population according to the forward versus side scatter ratio (Cell Quest Program). The absolute Fas, B7.1 and B7.2 values presented on the graphs were obtained by subtracting the […]. Values were considered subjectively positive (+) if the difference was statistically significant (p<0.001) according to the applied Kilmogorov-Smirnov statistical analysis.

TrkA cells = experiment: as above; type: cell-based, Rat; conditions: Trk cells, 50 ng/ml
Description: as §7, §8, §9

v-Crk cells = experiment: as above; type: cell-based, Rat
Description: as §7, §8, §9

With `COc1cccc2c1C(=O)c1c(O)c3c(c(O)c1C2=O)C[C@@](O)(C(=O)CO)C[C@@H]3O[C@H]1C[C@H](N)[C@H](O)[C@H](C)O1` [ADRIAMYCIN™] the Fas expression (L1210/DDP [1]) was “induced” and the Fas expression (L1210 [2]) was “increased”.
In the case of `CC(C)NCC(O)c1ccc(O)c(O)c1` (stereo not shown) [isoproterenol], the “intracellular cAMP response” value [3] is reported as “normal”, the apoptosis ([4]; (NZB×NZW)F1 B-cells) is reported as “minimal evidence of apoptosis” and the apoptosis ([4]; B-cells from (NZB×SWR)F1 mice) is reported as “intermediate level”.
`CN(Cc1cnc2nc(N)nc(N)c2n1)c1ccc(C(=O)N[C@@H](CCC(=O)O)C(=O)O)cc1` [methotrexate] was tested, and the “DNA fragments (laddering)” value (L1210/DDP [5]) was “did not”, the “DNA fragments (laddering)” value (L1210 [6]) was “produced a ladder of nucleosome sized fragments indicative of apoptosis” and the “susceptibility to methotrexate-induced apoptosis” value [7] was “decreased susceptibility”.
With `CC(=O)[O-].[Na+]` [sodium acetate] the “cell surface Fas expression” value (L1210/DDP [1]; L1210DDP, graded concentrations of sodium acetate in the medium) was “increases cell surface Fas expression”, the “cell surface Fas expression” value (L1210 [2]; graded concentrations of sodium acetate in the medium) was “increases cell surface Fas expression” and the “levels of cell surface Fas” value (B16 melanoma cells [8]; non-permeabilized B16 cells) was “increased”. For the same molecule, the “levels of intracellular Fas” value (B16 melanoma cells [8]; permeabilized B16 cells) was “declined”, the glucose oxidation (B16 melanoma cells [9]) was “decreased” and the glucose utilization (B16 melanoma cells [9]) was “decreased”. The “susceptibility to Fas-dependent cell death (percent chromium release)” value (L1210DDP) was “results in susceptibility to Fas-dependent cell death” and the “susceptibility to Fas-dependent cell death (percent chromium release)” value (L1210 [10]) was “results in susceptibility to Fas-dependent cell death”.
With `CN[C@@H]1C[C@H]2O[C@@](C)([C@@H]1OC)n1c3ccccc3c3c4c(c5c6ccccc6n2c5c31)C(=O)NC4` [staurosporine] the “Fas expression and susceptibility to drug-induced apoptosis” value (L1210/DDP [1]; L1210 DDP cells treated with staurosporin) was “restores Fas expression and susceptibility to drug-induced apoptosis”, the Fas expression (L1210/DDP [1]) was “induced” and the Fas expression (L1210 [2]) was “increased”.
With “EGF: EGF, kindly provided by Dr. Raymond Birge” the “B7.1 cell surface expression” value (PC12 cells; stimulation 24 hours) was “significantly lowers”, the “Fas cell surface expression” value (PC12 cells; stimulation 24 hours) was “downregulates Fas expression” and the “B7.1 cell surface expression” value (PC12 cells; stimulation 48 hours) was “reestablishes the basal values”. The “B7.2 cell surface expression” value (PC12 cells; stimulation 48 hours) was “up-regulates B7.2 expression”, the “Fas cell surface expression” value (PC12 cells; stimulation 48 hours) was “totally abrogates Fas expression” and the “B7.1 cell surface expression” value (TrkA cells; stimulation 24 hours) was “lowered”. The “Fas cell surface expression” value (TrkA cells; stimulation 24 hours) was “downregulates Fas expression”, the “B7.1 cell surface expression” value (TrkA cells; stimulation 48 hours) was “reestablished” and the “B7.2 cell surface expression” value (TrkA cells; stimulation 48 hours) was “most significant”. The “Fas cell surface expression” value (TrkA cells; stimulation 48 hours) was “totally abrogates Fas expression”, the “B7.1 cell surface expression” value (v-Crk cells; 50 ng/ml, 24 and 48 hours of culture) was “significantly increases B7.1 expression” and the “Fas cell surface expression” value (v-Crk cells; 50 ng/ml, stimulation 24 hours) was “significantly up-regulates Fas expression; also recorded: increases three-fold”. The “B7.2 cell surface expression” value (v-Crk cells; 50 ng/ml, stimulation 48 hours) was “significant induction”, the “Fas cell surface expression” value (v-Crk cells; 50 ng/ml, stimulation 48 hours) was “down-regulated and abrogated” and the “B7.2 cell surface expression” value (v-Crk cells; after withdrawal) was “again undetectable”.
